Where “and” joins values, the source holds several entries; their conditions need not be identical. Identical values can stand only once.
Columns and labels:
Assay type in all cases: in vivo, mice
GB208_1 = assay: INFγ ELISPOT, total splenocytes, responses to GB208_1; conditions: re-stimulation GB208_1 10 μg/ml, per mouse
Description: (§1) The impact of synthetic TQL-1055 (Compound I-4) on CD4 and CD8 T cell responses to peptides was tested in mice as a single adjuvant and in combination with Genocea Biosciences GEN-AS2 adjuvant and sGenocea Biosciences GEN-AS3 adjuvant according to the plan in the table below. The GEN-AS2 and GEN-AS3 adjuvant are TLR agonist-based adjuvant systems. Specific peptides tested include Genocea synthetic long peptides (SLPs) GB208_1, GB208_4, GB208_8, which are tumor-specific T cell antigens identified by neo-antigen screening, however the results are expected to replicate to other types of peptides. Combinations including an adjuvant composition with the SLPs were administered to mice via s.c. scruff according to the plan below. Injections were administered to groups according to the plan in the table below. Responses in mice were measured seven (7) or fourteen (14) days after the final injection.
(§2) T cell responses were measured by the following ELISPOT analyses: • 1. Total splenocytes: • a. Combined responses to GB208_1, _4, _8; re-stimulation with overlapping peptides (OLPs) at 10 μg/ml; • b. Responses to GB208_1; re-stimulation GB208_1 at 10 μg/ml; • c. Responses to GB208_4; re-stimulation GB208_4 at 10 μg/ml; • d. Responses to GB208_8; re-stimulation GB208_8 at 10 μg/ml; • 2. CD4 enriched: combined responses to GB208_1, _4, _8; re-stimulation with overlapping peptides at 20 μg/ml; and • 3. CD8 enriched: combined responses to GB208_1, _4, _8; re-stimulation with overlapping peptides at 20 μg/ml. Specific resulting data is shown in FIGS. 2-8 and in the tables below.
(§3) The values in Tables 3a-f results are spot forming units per 800,000 cells. A value of 2000 was used if spots exceeded the upper limit of detection. All groups had n=5, except groups 1, 2, and 3, which had four mice in each group.

GB208_4 = assay: INFγ ELISPOT, total splenocytes, responses to GB208_4; conditions: re-stimulation GB208_4 10 μg/ml, per mouse
Description: as §1, §2, §3

GB208_8 = assay: INFγ ELISPOT, total splenocytes, responses to GB208_8; conditions: re-stimulation GB208_8 10 μg/ml, per mouse
Description: as §1, §2, §3

GB208_1, _4, _8 [1] = assay: INFγ ELISPOT, total splenocytes, combined responses to GB208_1, _4, _8 (overlapping peptides); conditions: re-stimulation OLPs 10 μg/ml, per mouse
Description: as §1, §2, §3

CD4 enriched = assay: ELISPOT, CD4 enriched cells, combined responses to GB208_1, _4, _8; conditions: re-stimulation overlapping peptides 20 μg/ml
Description: as §1, §2
(§4) The values in Tables 3g-h results are spot forming units per 500,000 cells. A value of 2000 was used if spots exceeded the upper limit of detection.

CD8 enriched = assay: ELISPOT, CD8 enriched cells, combined responses to GB208_1, _4, _8; conditions: re-stimulation overlapping peptides 20 μg/ml
Description: as §1, §2, §4

GB208_1, _4, _8 [2] = assay: Endpoint titer, total IgG response to GB208_1, _4, _8; conditions: FIG. 7, total IgG endpoint titer
Description: FIG. 7 depicts data showing enpoint titer data for total IgG response to GB208_1, _4, _8 for each group tested in Example 2.
as §1

[3] = Group 2: no antigen, 50 μg TQL-1055, days 0, 7
[4] = Group 5: 150 μg SLPs + 10 μg TQL-1055, days 0, 7
[5] = Group 6: 150 μg SLPs + 25 μg TQL-1055, days 0, 7
[6] = Group 7: 150 μg SLPs + 50 μg TQL-1055, days 0, 7
[7] = Group 8: 150 μg SLPs + 100 μg TQL-1055, days 0, 7
[8] = Group 11: 150 μg SLPs + 50 μg TQL-1055, days 0, 14

CC1O[C@@H](OC2C(O)[C@@H](NC(=O)CCCCCCCCCCC(=O)O)C(CO)O[C@H]2OC(=O)[C@]23CCC(C)(C)CC2C2=CCC4C5(C)CC[C@H](O)C(C)(C=O)C5CCC4(C)[C@]2(C)CC3O)C(O)C(O)[C@H]1O[C@@H]1OC[C@@H](O)C(O)C1O (stereo partly shown) [TQL-1055]
SLP1-specific INFγ responses in splenocytes (GB208_1; [3]): 0 spot forming units per 800,000 cells
SLP1-specific INFγ responses in splenocytes (GB208_1; [4]): 0 spot forming units per 800,000 cells (2×) and 4 spot forming units per 800,000 cells and 11 spot forming units per 800,000 cells and 5 spot forming units per 800,000 cells
SLP1-specific INFγ responses in splenocytes (GB208_1; [5]): 3 spot forming units per 800,000 cells and 4 spot forming units per 800,000 cells and 25 spot forming units per 800,000 cells and 12 spot forming units per 800,000 cells and 30 spot forming units per 800,000 cells
SLP1-specific INFγ responses in splenocytes (GB208_1; [6]): 3 spot forming units per 800,000 cells and 13 spot forming units per 800,000 cells and 4 spot forming units per 800,000 cells and 18 spot forming units per 800,000 cells and 25 spot forming units per 800,000 cells
SLP1-specific INFγ responses in splenocytes (GB208_1; [7]): 0 spot forming units per 800,000 cells and 5 spot forming units per 800,000 cells and 7 spot forming units per 800,000 cells and 29 spot forming units per 800,000 cells and 3 spot forming units per 800,000 cells
SLP1-specific INFγ responses in splenocytes (GB208_1; [8]): 3 spot forming units per 800,000 cells (2×) and 20 spot forming units per 800,000 cells and 94 spot forming units per 800,000 cells and 4 spot forming units per 800,000 cells
SLP4-specific INFγ responses in splenocytes (GB208_4; [3]): 0 spot forming units per 800,000 cells
SLP4-specific INFγ responses in splenocytes (GB208_4; [4]): 31 spot forming units per 800,000 cells and 135 spot forming units per 800,000 cells and 21 spot forming units per 800,000 cells and 183 spot forming units per 800,000 cells and 72 spot forming units per 800,000 cells
SLP4-specific INFγ responses in splenocytes (GB208_4; [5]): 102 spot forming units per 800,000 cells and 70 spot forming units per 800,000 cells and 431 spot forming units per 800,000 cells and 22 spot forming units per 800,000 cells and 169 spot forming units per 800,000 cells
SLP4-specific INFγ responses in splenocytes (GB208_4; [6]): 68 spot forming units per 800,000 cells and 23 spot forming units per 800,000 cells and 142 spot forming units per 800,000 cells and 93 spot forming units per 800,000 cells and 42 spot forming units per 800,000 cells
SLP4-specific INFγ responses in splenocytes (GB208_4; [7]): 30 spot forming units per 800,000 cells and 37 spot forming units per 800,000 cells and 19 spot forming units per 800,000 cells and 76 spot forming units per 800,000 cells and 78 spot forming units per 800,000 cells
SLP4-specific INFγ responses in splenocytes (GB208_4; [8]): 43 spot forming units per 800,000 cells and 96 spot forming units per 800,000 cells and 31 spot forming units per 800,000 cells and 258 spot forming units per 800,000 cells and 79 spot forming units per 800,000 cells
SLP8-specific INFγ responses in splenocytes (GB208_8; [3]): 0 spot forming units per 800,000 cells (3×) and 2 spot forming units per 800,000 cells
SLP8-specific INFγ responses in splenocytes (GB208_8; [4]): 0 spot forming units per 800,000 cells (2×) and 13 spot forming units per 800,000 cells and 15 spot forming units per 800,000 cells and 16 spot forming units per 800,000 cells
SLP8-specific INFγ responses in splenocytes (GB208_8; [5]): 21 spot forming units per 800,000 cells (2×) and 5 spot forming units per 800,000 cells and 53 spot forming units per 800,000 cells and 3 spot forming units per 800,000 cells
SLP8-specific INFγ responses in splenocytes (GB208_8; [6]): 29 spot forming units per 800,000 cells and 5 spot forming units per 800,000 cells and 55 spot forming units per 800,000 cells and 286 spot forming units per 800,000 cells and 20 spot forming units per 800,000 cells
SLP8-specific INFγ responses in splenocytes (GB208_8; [7]): 15 spot forming units per 800,000 cells and 0 spot forming units per 800,000 cells and 2 spot forming units per 800,000 cells and 29 spot forming units per 800,000 cells and 4 spot forming units per 800,000 cells
SLP8-specific INFγ responses in splenocytes (GB208_8; [8]): 59 spot forming units per 800,000 cells and 33 spot forming units per 800,000 cells and 93 spot forming units per 800,000 cells and 164 spot forming units per 800,000 cells and 136 spot forming units per 800,000 cells
INFγ responses in splenocytes to SLPs 1, 4, 8 (GB208_1, _4, _8 [1]; [3]): 0.5 spot forming units per 800,000 cells (2×) and 2.5 spot forming units per 800,000 cells and 2 spot forming units per 800,000 cells
INFγ responses in splenocytes to SLPs 1, 4, 8 (GB208_1, _4, _8 [1]; [4]): 12.5 spot forming units per 800,000 cells and 20 spot forming units per 800,000 cells and 11 spot forming units per 800,000 cells and 115 spot forming units per 800,000 cells and 53 spot forming units per 800,000 cells
INFγ responses in splenocytes to SLPs 1, 4, 8 (GB208_1, _4, _8 [1]; [5]): 104.5 spot forming units per 800,000 cells and 39 spot forming units per 800,000 cells and 338 spot forming units per 800,000 cells and 12.5 spot forming units per 800,000 cells and 167.5 spot forming units per 800,000 cells
INFγ responses in splenocytes to SLPs 1, 4, 8 (GB208_1, _4, _8 [1]; [6]): 56 spot forming units per 800,000 cells and 32 spot forming units per 800,000 cells and 138 spot forming units per 800,000 cells and 139 spot forming units per 800,000 cells and 59.5 spot forming units per 800,000 cells
INFγ responses in splenocytes to SLPs 1, 4, 8 (GB208_1, _4, _8 [1]; [7]): 42.5 spot forming units per 800,000 cells and 22 spot forming units per 800,000 cells and 17 spot forming units per 800,000 cells and 74.5 spot forming units per 800,000 cells and 73 spot forming units per 800,000 cells
INFγ responses in splenocytes to SLPs 1, 4, 8 (GB208_1, _4, _8 [1]; [8]): 70 spot forming units per 800,000 cells and 85 spot forming units per 800,000 cells and 32.5 spot forming units per 800,000 cells and 319.5 spot forming units per 800,000 cells and 112 spot forming units per 800,000 cells
CD4 Responses, OLP pool SLP 1, 4, 8 (CD4 enriched; [3]): 0 spot forming units per 500,000 cells
CD4 Responses, OLP pool SLP 1, 4, 8 (CD4 enriched; [4]): 48.5 spot forming units per 500,000 cells
CD4 Responses, OLP pool SLP 1, 4, 8 (CD4 enriched; [5]): 149.5 spot forming units per 500,000 cells
CD4 Responses, OLP pool SLP 1, 4, 8 (CD4 enriched; [6]): 88.5 spot forming units per 500,000 cells
CD4 Responses, OLP pool SLP 1, 4, 8 (CD4 enriched; [7]): 28.5 spot forming units per 500,000 cells
CD4 Responses, OLP pool SLP 1, 4, 8 (CD4 enriched; [8]): 79 spot forming units per 500,000 cells
CD8 Responses, OLP pool SLP 1, 4, 8 (CD8 enriched; [3]): 2.5 spot forming units per 500,000 cells
CD8 Responses, OLP pool SLP 1, 4, 8 (CD8 enriched; [4]): 6.5 spot forming units per 500,000 cells
CD8 Responses, OLP pool SLP 1, 4, 8 (CD8 enriched; [5]): 5 spot forming units per 500,000 cells
CD8 Responses, OLP pool SLP 1, 4, 8 (CD8 enriched; [6]): 5.5 spot forming units per 500,000 cells
CD8 Responses, OLP pool SLP 1, 4, 8 (CD8 enriched; [7]): 6.5 spot forming units per 500,000 cells
CD8 Responses, OLP pool SLP 1, 4, 8 (CD8 enriched; [8]): 3.5 spot forming units per 500,000 cells
antibody response for antibodies specific to GB208_1, _4, and _8 compared with GEN-AS3 (GB208_1, _4, _8 [2]): in line with or better than GEN-AS3

Reference: US11324821B2, “Triterpene saponin analogues” (ADJUVANCE TECHNOLOGIES, INC., priority 2017, dated 2022)
